Laboratory results taken from PubChem BioAssay (NCI).
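Following 48 hours of exposure in 96-well plates, responses at five concentrations were used to interpolate endpoints linearly. TGI: total growth inhibition.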

Legend:
Assay in all cases: NCI anticancer screen, dose series, 48 h
MOLT-4 leukemia = test system: MOLT-4 leukemia
SK-MEL-5 melanoma = test system: SK-MEL-5 melanoma
IGROV1 ovarian = test system: IGROV1 ovarian
HCT-15 colon = test system: HCT-15 colon
SK-MEL-2 melanoma = test system: SK-MEL-2 melanoma
T-47D breast = test system: T-47D breast
SNB-75 CNS = test system: SNB-75 CNS
NCI-H522 lung = test system: NCI-H522 lung
KM12 colon = test system: KM12 colon
HCC-2998 colon = test system: HCC-2998 colon
SW-620 colon = test system: SW-620 colon
NCI/ADR-RES ovarian = test system: NCI/ADR-RES ovarian
COLO 205 colon = test system: COLO 205 colon
HOP-62 NSCLC = test system: HOP-62 NSCLC
M14 melanoma = test system: M14 melanoma
SF-539 CNS = test system: SF-539 CNS
A498 renal = test system: A498 renal
MDA-N = test system: MDA-N
DU-145 prostate = test system: DU-145 prostate
SN12C renal = test system: SN12C renal
HCT-116 colon = test system: HCT-116 colon
HS 578T breast = test system: HS 578T breast
CAKI-1 renal = test system: CAKI-1 renal
UACC-62 melanoma = test system: UACC-62 melanoma
BT-549 breast = test system: BT-549 breast
NCI-H460 lung = test system: NCI-H460 lung
HL-60(TB) leukemia = test system: HL-60(TB) leukemia
OVCAR-5 ovarian = test system: OVCAR-5 ovarian
786-0 renal = test system: 786-0 renal
UO-31 renal = test system: UO-31 renal
A549 NSCLC = test system: A549 NSCLC
SNB-19 CNS = test system: SNB-19 CNS
NCI-H226 lung = test system: NCI-H226 lung
HOP-92 NSCLC = test system: HOP-92 NSCLC
MCF7 breast = test system: MCF7 breast
SR leukemia = test system: SR leukemia
TK-10 renal = test system: TK-10 renal
SF-295 CNS = test system: SF-295 CNS
OVCAR-8 ovarian = test system: OVCAR-8 ovarian
RXF 393 renal = test system: RXF 393 renal
UACC-257 melanoma = test system: UACC-257 melanoma
ACHN renal = test system: ACHN renal
SK-OV-3 ovarian = test system: SK-OV-3 ovarian
K-562 leukemia = test system: K-562 leukemia
EKVX NSCLC = test system: EKVX NSCLC
HT29 colon = test system: HT29 colon
U251 CNS = test system: U251 CNS
NCI-H23 lung = test system: NCI-H23 lung
SK-MEL-28 melanoma = test system: SK-MEL-28 melanoma
PC-3 prostate = test system: PC-3 prostate
LOX IMVI melanoma = test system: LOX IMVI melanoma
SF-268 CNS = test system: SF-268 CNS
CCRF-CEM leukemia = test system: CCRF-CEM leukemia
MDA-MB-231 breast = test system: MDA-MB-231 breast
MDA-MB-435 = test system: MDA-MB-435
OVCAR-3 ovarian = test system: OVCAR-3 ovarian
RPMI-8226 leukemia = test system: RPMI-8226 leukemia
MALME-3M melanoma = test system: MALME-3M melanoma
OVCAR-4 ovarian = test system: OVCAR-4 ovarian

## COC1CC(OC2CCC3(C)C(CCC45CCC(C6=CC(=O)OC6)C(C)(CCC43)C5=O)C2)OC(C)C1O (configuration not stated)
MOLT-4 leukemia
  TGI: 65.7 µM
SK-MEL-5 melanoma
  TGI: 41.9 µM
IGROV1 ovarian
  TGI: > 100 µM
HCT-15 colon
  TGI: 52.2 µM
SK-MEL-2 melanoma
  TGI: > 100 µM
T-47D breast
  TGI: > 100 µM
SNB-75 CNS
  TGI: > 100 µM
NCI-H522 lung
  TGI: 82.1 µM
KM12 colon
  TGI: > 100 µM
HCC-2998 colon
  TGI: 44.4 µM
SW-620 colon
  TGI: > 100 µM
NCI/ADR-RES ovarian
  TGI: > 100 µM
COLO 205 colon
  TGI: > 100 µM
HOP-62 NSCLC
  TGI: 51.3 µM
M14 melanoma
  TGI: > 100 µM
SF-539 CNS
  TGI: 63.3 µM
A498 renal
  TGI: > 100 µM
MDA-N
  TGI: > 100 µM
DU-145 prostate
  TGI: 29.3 µM
SN12C renal
  TGI: 61.9 µM
HCT-116 colon
  TGI: > 100 µM
HS 578T breast
  TGI: > 100 µM
CAKI-1 renal
  TGI: 80.1 µM
UACC-62 melanoma
  TGI: > 100 µM
BT-549 breast
  TGI: 55.3 µM
NCI-H460 lung
  TGI: 32.4 µM
HL-60(TB) leukemia
  TGI: 43.7 µM
OVCAR-5 ovarian
  TGI: > 100 µM
786-0 renal
  TGI: 64.8 µM
UO-31 renal
  TGI: 35.8 µM
A549 NSCLC
  TGI: > 100 µM
SNB-19 CNS
  TGI: 63.6 µM
NCI-H226 lung
  TGI: > 100 µM
HOP-92 NSCLC
  TGI: > 100 µM
MCF7 breast
  TGI: > 100 µM
SR leukemia
  TGI: 71.8 µM
TK-10 renal
  TGI: > 100 µM
SF-295 CNS
  TGI: > 100 µM
OVCAR-8 ovarian
  TGI: > 100 µM
RXF 393 renal
  TGI: 89.4 µM
UACC-257 melanoma
  TGI: > 100 µM
ACHN renal
  TGI: 41.1 µM
SK-OV-3 ovarian
  TGI: > 100 µM
K-562 leukemia
  TGI: > 100 µM
EKVX NSCLC
  TGI: > 100 µM
HT29 colon
  TGI: > 100 µM
U251 CNS
  TGI: > 100 µM
NCI-H23 lung
  TGI: 48.3 µM
SK-MEL-28 melanoma
  TGI: > 100 µM
PC-3 prostate
  TGI: > 100 µM
LOX IMVI melanoma
  TGI: > 100 µM
SF-268 CNS
  TGI: 44 µM
CCRF-CEM leukemia
  TGI: 50.6 µM
MDA-MB-231 breast
  TGI: > 100 µM
MDA-MB-435
  TGI: > 100 µM
OVCAR-3 ovarian
  TGI: 82 µM

## O=c1c2cc([N+](=O)[O-])ccc2n2n1Cc1ccccc1C2
MOLT-4 leukemia
  TGI: > 100 µM
SK-MEL-5 melanoma
  TGI: > 100 µM
IGROV1 ovarian
  TGI: > 100 µM
HCT-15 colon
  TGI: > 100 µM
T-47D breast
  TGI: > 100 µM
SNB-75 CNS
  TGI: > 100 µM
NCI-H522 lung
  TGI: > 100 µM
KM12 colon
  TGI: > 100 µM
HCC-2998 colon
  TGI: > 100 µM
SW-620 colon
  TGI: > 100 µM
NCI/ADR-RES ovarian
  TGI: > 100 µM
COLO 205 colon
  TGI: > 100 µM
RPMI-8226 leukemia
  TGI: > 100 µM
MALME-3M melanoma
  TGI: > 100 µM
HOP-62 NSCLC
  TGI: > 100 µM
SF-539 CNS
  TGI: > 100 µM
A498 renal
  TGI: > 100 µM
MDA-N
  TGI: > 100 µM
DU-145 prostate
  TGI: > 100 µM
SN12C renal
  TGI: > 100 µM
HCT-116 colon
  TGI: > 100 µM
HS 578T breast
  TGI: > 100 µM
CAKI-1 renal
  TGI: > 100 µM
UACC-62 melanoma
  TGI: > 100 µM
BT-549 breast
  TGI: > 100 µM
NCI-H460 lung
  TGI: > 100 µM
HL-60(TB) leukemia
  TGI: > 100 µM
786-0 renal
  TGI: > 100 µM
UO-31 renal
  TGI: > 100 µM
A549 NSCLC
  TGI: > 100 µM
SNB-19 CNS
  TGI: > 100 µM
NCI-H226 lung
  TGI: > 100 µM
HOP-92 NSCLC
  TGI: > 100 µM
MCF7 breast
  TGI: > 100 µM
SR leukemia
  TGI: > 100 µM
TK-10 renal
  TGI: > 100 µM
SF-295 CNS
  TGI: > 100 µM
OVCAR-8 ovarian
  TGI: > 100 µM
RXF 393 renal
  TGI: > 100 µM
UACC-257 melanoma
  TGI: > 100 µM
ACHN renal
  TGI: > 100 µM
SK-OV-3 ovarian
  TGI: > 100 µM
OVCAR-4 ovarian
  TGI: > 100 µM
K-562 leukemia
  TGI: > 100 µM
EKVX NSCLC
  TGI: > 100 µM
HT29 colon
  TGI: > 100 µM
U251 CNS
  TGI: > 100 µM
NCI-H23 lung
  TGI: > 100 µM
SK-MEL-28 melanoma
  TGI: > 100 µM
PC-3 prostate
  TGI: > 100 µM
LOX IMVI melanoma
  TGI: > 100 µM
SF-268 CNS
  TGI: > 100 µM
CCRF-CEM leukemia
  TGI: > 100 µM
MDA-MB-231 breast
  TGI: > 100 µM
MDA-MB-435
  TGI: > 100 µM
OVCAR-3 ovarian
  TGI: > 100 µM
